How the values were obtained:
[1] = test system: TERT expression; assay: TERT expression by qRT-PCR in human cancer cell lines treated with inhibitors; type: cell-based; details: 0.2 uM AZD6244, 24 hours
Description: (§1) FIG. 2A-2G. BRAF V600E/MAPK pathway regulated TERT expression. (FIG. 2A) TERT expression was analyzed by qRT-PCR in cells treated with 0.5 uM PLX4032 or 0.2 uM AZD6244 for 24 hours (upper panel). The corresponding levels of phosphorylated ERK (p-ERK), total ERK (t-ERK), and beta-actin were detected by Western blotting (lower panel). The relative TERT mRNA expression levels were normalized to the DMSO control group. (FIG. 2B) Luciferase reporting assay of TERT promoter activities in K1 cells treated with DMSO or PLX4032 (0.5 uM). (FIG. 2C, 2D) Specific shRNA against BRAF were used to knock down BRAF in thyroid cancer cell lines BCPAP and K1 and melanoma cell line A375. Scramble shRNA was used as control. Cells were then subjected to Western blotting (FIG. 2C) and qRT-PCR (FIG. 2D). (FIG. 2E) Sequencing of the BRAF exon-15 in the parental and heterozygous BRAF-V600E knock-in SW48 cells. BRAF V600E was knocked in on one allele of BRAF by rAAV technology through homologous recombination and Cre recombinase of the Neo cassette. (FIG. 2F) Western blotting analyses of phosphorylation of ERK (p-ERK), total ERK (t-ERK), BRAF, and beta-actin in the parental and BRAF-V600E knock-in SW48 cells. (FIG. 2G) TERT promoter luciferase reporter assay in SW48 cells with/without BRAF V600E knock-in. **P<0.01, ***P<0.001, by 2-tailed Student's t test. P values are for the comparison of the indicated condition with DMSO (FIG. 2B), scramble (FIG. 2D), or BRAF-WT groups (FIG. 2G). All the values represent the average standard deviation (SD) of triplicate samples from a typical experiment. All the experiments were performed three times with similar results.
FIG. 3A-3C. MYC regulated TERT expression in a TERT promoter mutation-independent manner. (FIG. 3A) The four indicated cancer cell lines harboring BRAF V600E mutation were treated with 0.5 uM PLX4032 and/or 10 nM MYC-specific siRNA (siMYC) for 24 hours, which were then subjected to Western blotting (upper panel) and qRT-PCR (lower panel). The relative TERT mRNA expression was normalized to the control group. (FIG. 3B, 3C) Parental and BRAF V600E knock-in SW48 cells were treated with control siRNA (siControl) or MYC-specific siRNA (siMYC, 10 nM) for 48 h, followed by Western blotting (FIG. 3B) and luciferase reporter assays (FIG. 3C). *P<0.05, **P<0.01, ***P<0.001, by 2-tailed Student's t test. n.s., not significant. All the values represent the average standard deviation (SD) of triplicate samples from a typical experiment. Similar results were obtained in two additional independent experiments.
FIG. 9A-9B. Summarized effects of PLX4032 (FIG. 9A) and AZD6244 (FIG. 9B) on TERT mRNA expression. Each bar represents the average+SD of the cells with the same genotypes as follows: BRAF-mut and TERT-mut cell lines: BCPAP, K1, OCUT1, A375, and M14; BRAF-mut and TERT-wt cell lines: SK-MEL-1, SK-MEL-3, and RKO; BRAF-wt and TERT-mut cell lines: TPC1, KAT18, C643, CHL-1, SK-MEL-2, and Mewo; BRAF-wt and TERT-wt cell lines: FB1, WRO, and HTORI3. Compared with the corresponding control of DMSO, **P<0.01, ***P<0.001, by independent t-test.
The BRAF V600E-specific inhibitor PLX4032 (#S1267) and the MEK1 inhibitor AZD6244 (#S1008) were purchased from Selleck Chemicals (Houston, TX), dissolved in DMSO with a stock concentration of 10 mM and stored at −20° C. PLX4032 and AZD6244 were used to treat cells for 24 hours at 0.5 μM and 0.2 μM, respectively, where indicated in the manuscript. DMSO was used as the vehicle control.
Total RNA was extracted from cultured cells using the TRIzol reagent (#15596-018; Ambion, Life Technologies, Carlsbad, CA) and reverse-transcribed to cDNA using the SuperScript III First-Strand Synthesis System (#18080-051; Invitrogen, Life Technologies, Carlsbad, CA). Gene expression was analyzed in triplicate using FastStart Universal SYBR Green Master with ROX (#04913850001; Roche Applied Science, Indianapolis, IN) on the Applied Biosystems 7900HT Fast Real-Time PCR System. […]

[2] = test system: ERK phosphorylation; assay: Western blotting of phosphorylated ERK in inhibitor-treated cells; type: cell-based, human; details: cells harboring wild-type BRAF; 0.2 uM AZD6244, 24 hours
Description: as §1, with “results. […]” for “results.”
Cells were lysed in the RIPA buffer (#sc-24948; Santa Cruz Biotechnology, Santa Cruz, CA) with protease inhibitor cocktail (#P8340; Sigma-Aldrich) and phosphatase inhibitor cocktail (#P0044; Sigma-Aldrich) and Western blotting analysis was performed as we previously described^54. […] Signals were detected by SuperSignal™ West Pico PLUS Chemiluminescent Substrate (#34579; Thermo Fisher Scientific). […]

Compound: Cn1cnc2c(F)c(Nc3ccc(Br)cc3Cl)c(C(=O)NOCCO)cc21 [AZD6244]
- TERT expression ([1]; cells harboring BRAF V600E mutation): similarly inhibited TERT expression
- TERT expression ([1]; cells harboring wild-type BRAF, TERT promoter mutant versus wild-type): inhibited TERT expression more in those harboring TERT promoter mutations
- ERK phosphorylation [2]: modest inhibitory effect

— patent US11911356B2, “Regulation of mutant TERT by BRAF V600E/map kinase pathway through FOS/GABP in human cancer” (THE JOHNS HOPKINS UNIVERSITY, priority 2017, dated 2024)
